# From article PMC11232398, “Antimalarial activity of cecropin antimicrobial peptides derived from Anopheles mosquitoes” (Antimicrobial Agents and Chemotherapy, 2024)
# Legend:
# [1] = tested on: RBCs infected by schizonts of P. falciparum 3D7; assay: Hemolytic activity on RBCs infected by schizonts; assay type: cell-based, human; conditions: percoll-purified 3D7 schizonts, 2% hematocrit in PBS
# Description: To test the hemolytic activity of the peptides against RBCs infected by Plasmodium, schizonts of the P. falciparum 3D7 strain were collected. The parasite culture of mainly schizonts was centrifuged and resuspended to 50% hematocrit. Then, the resuspended culture was carefully laid on top of the gradient with 3 mL 70% and 3 mL 40% percoll-sorbitol solution. After centrifugation at 2,300 × g for 20 min at 20°C, schizonts from the 40/70% interface were collected and washed twice with 10× volume of ICM. The collected parasites were resuspended in PBS to 2% hematocrit for hemolysis assay as described above.
# [2] = tested on: methyl-β-cyclodextrin-treated RBCs; assay: Hemolytic activity on cholesterol-depleted erythrocytes; assay type: cell-based, human; conditions: RBCs treated with 7.5 mM methyl-β-cyclodextrin for 2 hours at 37°C
# Description: Cholesterol is the main component of the RBC membrane and is important for maintaining its stability ([39]). Plasmodium falciparum infection efficiently depletes the red blood cells of cholesterol, which renders […] membranes susceptible to lysis ([40]). Therefore, methyl-β-cyclodextrin treatment was used to simulate the RBC cholesterol depletion caused by infection with Plasmodium. RBCs were washed once and then resuspended with PBS at 0.5% hematocrit. After treatment with the indicated concentration (7.5 mM) of methyl-β-cyclodextrin (Sigma) in RPMI for 2 hours at 37°C, the treated RBCs were washed with PBS and hemolysis assays were performed as described above. Two independent tests with five technical replicates were performed for each hemolysis assay.
# [3] = tested on: P. falciparum 3D7 ring, trophozoite and schizont stages; assay: Stage-specific parasite inhibition assay; assay type: cell-based, Plasmodium falciparum; conditions: 40 µM for 12 hours at ring, trophozoite or schizont stage; reinvasion parasitemia at 50 hpi and after 1:40 dilution and 4 days
# Description: The activity of An-cecB against different blood stage parasites was evaluated. Parasites were exposed to An-cecB at a lethal concentration of 40 µM for 12 hours at the ring stage [[…] (hours post invasion)], trophozoite stage (17–29 hpi), and schizont stage (29–41 hpi) (Fig. 2a). […] Parasites were then washed and cultured for 4 days […].
# To analyze the stage-specific parasite inhibition, highly synchronized ring-stage parasites of the 3D7 strain were cultured in 48-well plates with a starting parasitemia of 0.5% ~ 1% at a hematocrit of 2%. The tested peptide at a concentration of 40 µM was added to ring stage parasites (5 hpi), trophozoites (17 hpi), and schizonts (29 hpi). After treatment for 12 hours, the parasites were washed three times to remove the peptide and the re-invaded parasites (50 hpi) were analyzed. The parasitemia (50hpi) was diluted 1:40 by new RBCs and cultured for a further 4 days. CM was used as a blank control. Parasitemia was counted under a microscope.
# [4] = Acute oral toxicity test in mice; assay type: in vivo, BALB/c mice; conditions: for survival number: n = 6, 14 days; for Body weight Day0 / Body weight Day7 / Body weight Day14: n = 6, in g (unit assumed)
# Description: Mice were housed under standard conditions at a temperature of 24 ± 2°C and a humidity of 50%–80%. Lighting was alternated between day and night every 12 hours. All mouse groups consisted of six animals per cage, and these were fed ad libitum with SPF-grade stock diet and water. All the experimental mice were adapted to the animal room for 1 to 2 weeks before the experiment.
# For the acute toxicity test, the mice were divided into four groups. Each group contained six mice. Mice were fasted for 2 hours before feeding with a single oral dose of peptide. The mice in each group were fed with peptide at a single oral dose of 500, 200, and 100 mg/kg body weight. Normal saline (1 mL) was used as control. The general behavior of each mouse was observed continuously for the first 1 hour, then intermittently every 4 hours, and thereafter over a period of 24 hours ([43]).
# [5] = tested on: P. falciparum Dd2 (chloroquine-resistant strain); assay: In vitro antimalarial IC50 assay; assay type: cell-based, Plasmodium falciparum; conditions: strain Dd2, 72 h incubation, Giemsa smears
# Description: (§1) Blood stages of the laboratory clones P. falciparum 3D7 (sensitive strain), P. falciparum 803 (artemisinin-resistant strain), and P. falciparum Dd2 (chloroquine-resistant strain) were cultured in vitro according to the method of Trager and Jensens with minor modifications ([37]). Briefly, cultures were maintained in O-positive human erythrocytes (RBCs) as host cells at 2% hematocrit and maintained in complete medium (CM) [RPMI-1640 culture medium supplemented with NaHCO3 (2 mg/mL), hypoxanthine (50 µg/mL), HEPES (5.96 mg/mL), albumax II (1%), and gentamicin (40 µg/mL)]. The cultures were diluted to 1% parasitemia and 2% hematocrit in CM and incubated in a humidified atmosphere with 5% O2, 5% CO2, and 90% N2 at 37°C. Prior to experiments, the cultures were highly synchronized for ring stages using 5% sorbitol twice at a 40-h interval. Briefly, ring stage cultures were centrifuged and the pellet was washed once in incomplete medium (ICM, RPMI-1640 without addition). […] The development of the parasite was observed using light microscopy, and parasitemia was determined by counting at least 10,000 RBCs on Giemsa’s solution-stained thin blood smears.
# (§2) Highly synchronous ring stage parasites were used to investigate the in vitro antimalarial activity of the peptides. […] Thin blood films stained with Giemsa’s solution were counted under a microscope. […] IC50 was calculated by GraphPad Prism.
# [6] = tested on: P. falciparum 803 (artemisinin-resistant strain); assay: In vitro antimalarial IC50 assay; assay type: cell-based, Plasmodium falciparum; conditions: strain 803, 72 h incubation, Giemsa smears
# Description: as §1, §2
# Description for HepG2 cells: The mammalian cell lines HepG2 and HEK293T were used for cytotoxicity tests. The cells were cultured in Dulbecco’s modified Eagle medium supplemented with 10% fetal bovine serum and 1% penicillin/streptomycin in an incubator at 37°C with 5% CO2. Cells were seeded at a density of 1 × 10^5 cells/mL per well into a 96-well plate overnight and treated with different concentrations of peptides for 48 hours. To analyze the CC50 of peptides, a series of concentrations of peptides (0, 5, 10, 20, 30, 40, 50, 60, and 70 µM) were set to detect their cytotoxic concentrations. Then, 10% CCK-8 solution was added into each well and incubated for another 2 hours. The absorbance was monitored by a microplate reader at 450 nm. PBS was used as a negative control and the inhibition of each drug was normalized to that of the PBS control. CC50 was calculated by GraphPad Prism. Two independent assays with three technical replicates each time were conducted.
sequence,measurement,setting,value
APRWKFGKRLEKLGRNVFRAA KKALPVIAGYKAL-NH2 [An-cecB],hemolytic activity to infected erythrocytes,[1],specifically lysed infected erythrocytes
same,hemolysis of cholesterol-depleted erythrocytes,[2],significantly higher than that of controls
same,activity against different blood stage parasites,[3],All parasite stages were killed
same,survival number,[4]; single oral dose 100 mg/kg,6
same,Body weight Day0,[4]; single oral dose 100 mg/kg,20.45±1.56
same,Body weight Day7,[4]; single oral dose 100 mg/kg,20.9±1.62
same,Body weight Day14,[4]; single oral dose 100 mg/kg,21.98±0.91
same,survival number,[4]; single oral dose 200 mg/kg,6
same,Body weight Day14,"[4]; single oral dose 200 mg/kg, P < 0.01 vs control",18.4±2.1
same,Body weight Day0,[4]; single oral dose 200 mg/kg,20.45±1.56
same,Body weight Day7,[4]; single oral dose 200 mg/kg,19.25±1.8
same,survival number,"[4]; single oral dose 500 mg/kg, one mouse died on Day8",5
same,Body weight Day14,"[4]; single oral dose 500 mg/kg, P < 0.01 vs control",16.54±3.24
same,Body weight Day0,[4]; single oral dose 500 mg/kg,19.55±2.01
same,CC50,HepG2 cells,60.43 µM
same,IC50,[5],12.8 µM
same,IC50,[6],9.89 µM
